Test results as given in patent publication US20190307843A1, “SINGLE DOSE METHODS FOR PREVENTING AND TREATING FUNGAL INFECTIONS” (Cidara Therapeutics, Inc., priority 2016, published 2019).
Several values for one entry are separate records, joined by “and”; a condition that tells them apart may be missing. Equal entries are not always repeated. Where two headings read alike, the source gives them in different places. Starred links: 1 amine or outer side, 2 acyl side, 3 side chain; linkers in the order of their positions; H or OH if unused. Positions of bridges follow the written chain, without caps; N, C: chain ends. Non-standard residues stand in square brackets, D forms with d. Residues, ends and D or L forms follow the SMILES beside them. *: point of attachment. Orn(4R-OH,5R-OCH2CH2NMe3+) = C[N+](C)(C)CCO[C@@H](N[*:3])[C@H](O)C[C@H](N[*:1])C(=O)[*:2]; pTerphenylCO(4''-OnC5H11) = CCCCCOc1ccc(-c2ccc(-c3ccc(C(=O)*)cc3)cc2)cc1; hTyr(3S-OH,4S-OH) = N[C@H](C(=O)O)[C@H](O)[C@@H](O)c1ccc(O)cc1; Pro(3S-OH,4S-Me) = C[C@H]1CN[C@H](C(=O)O)[C@H]1O; Hyp = O=C(O)[C@@H]1C[C@@H](O)CN1

Assays:
[1] = tested on: A. fumigatus clinical isolates; experiment: CLSI broth microdilution (M38-A2) MEC, SENTRY clinical isolates; format: cell-based, Aspergillus fumigatus; details: 153 A. fumigatus clinical isolates, 2014 and 2015
Excerpt: The in vitro activity of CD101 was previously evaluated as part of the SENTRY international surveillance program using CLSI broth microdilution methodology (M38-A2, M27-A3; Pfaller, et al 2017). […] These susceptibility data were then compared graphically to CD101 plasma concentrations from studies in healthy adults, adjusted for plasma protein binding. Nonclinical efficacy in a murine model of Pneumocystis pneumonia were also considered to evaluate CD101 doses for clinical investigation of antifungal prophylaxis.
(§1) The in vitro activity of CD101 was evaluated against 153 A. fumigatus clinical isolates collected as part of the 2014 and 2015 JMI international SENTRY surveillance program. Susceptibility was determined by measuring the minimal effective concentration (MEC) values in accordance with CLSI broth microdilution guidelines (M38-A2). In vivo tissue distribution of CD101 in SD rats (N=3/time up to 5 d) after a 5 mg/kg IV CD101 dose. Plasma/tissue concentrations were measured by LC-MS/MS.

C. parapsilosis = experiment: Neutropenic murine disseminated candidiasis model, PK/PD targets, C. parapsilosis
[2] = Pharmacokinetic profile in mice following a 10-mg/kg subcutaneous dose; format: in vivo; details: mouse, plasma, sc
[3] = Monkey SC local tolerability study; format: in vivo, cynomolgus monkey
Description: (§2) Previous toxicology studies by the IV route of administration conducted in cynomolgus monkeys have shown CD101 to be safe and well tolerated at up to at least 30 mg/kg, which generates very high systemic exposures upon initial infusion of CD101 into the bloodstream. Therefore, only local tolerability (and PK) of CD101 by SC administration required evaluation. […] Plasma concentrations were then quantified by liquid chromatography with tandem mass spectrometric detection (LC-MS/MS). Bioavailability from SC dosing was calculated by comparing the calculated area under the concentration-time profile (AUC) from SC against the AUC from IV administration of the same dose.
Therefore, a separate study was designed to evaluate the tolerability of a SC dose of CD101 as a highly concentrated solution (100 mg/mL; 30 mg/kg) in two cynomolgus monkeys. […] The drug reaches a maximum concentration within a few hours then remains nearly constant over the course of 10 days.

[4] = tested on: Aspergillus fumigatus (ATCC 13073); experiment: Neutropenic mouse aspergillosis model, survival; format: in vivo; details: CD101 2 mg/kg IV or IP one dose; 10 days
[5] = tested on: A. fumigatus clinical isolates; details: Aspergillus fumigatus clinical isolates; SENTRY, Pfaller, et al 2017; cited from earlier work
[6] = Previous toxicology studies by the IV route; format: in vivo, cynomolgus monkey
Description: as §2

C. albicans = experiment: Neutropenic murine disseminated candidiasis model, PK/PD targets, C. albicans
[7] = In vivo tissue distribution in SD rats after 5 mg/kg IV; details: Sprague-Dawley, rat
Description: as §1

[8] = tested on: Aspergillus fumigatus (ATCC 13073); experiment: Prophylaxis, neutropenic ICR mouse disseminated aspergillosis model, survival
invasive candidiasis = experiment: Human subject with invasive candidiasis, single subcutaneous dose (Example 3); format: in vivo; details: single dose of 50-1200 mg acetate salt of CD101, subcutaneous injection
Description: A human subject is diagnosed with invasive candidiasis using standard diagnostic procedures. The subject receives treatment with a single dose of 50-1200 mg (e.g., 75±25 mg, 100±25 mg, 150±50 mg, 200±50 mg, 250±50 mg, 300±50 mg, 350±50 mg, 400±50 mg, 450±50 mg, 500±100 mg, 600±100 mg, 700±100 mg, 800±100 mg, 900±50 mg, 1000 mg±100 mg, or 1100±100 mg) of the acetate salt of CD101 administered by subcutaneous injection. No other antifungal treatment is provided to the subject within one to three weeks before or after administration of the single dose CD101 treatment.

[9] = C. albicans, Median of 4 strains

CCCCCOc1ccc(-c2ccc(-c3ccc(C(=O)N[C@H]4C[C@@H](O)[C@@H](OCC[N+](C)(C)C)NC(=O)[C@@H]5[C@@H](O)[C@@H](C)CN5C(=O)[C@H]([C@@H](C)O)NC(=O)[C@H]([C@H](O)[C@@H](O)c5ccc(O)cc5)NC(=O)[C@@H]5C[C@@H](O)CN5C(=O)[C@H]([C@@H](C)O)NC4=O)cc3)cc2)cc1 [CD101] ({pTerphenylCO(4''-OnC5H11)}-[Orn(4R-OH,5R-OCH2CH2NMe3+)]T[Hyp][hTyr(3S-OH,4S-OH)]T[Pro(3S-OH,4S-Me)]; lactam 1-C)
MEC50 [1]: 0.015 µg/mL | MEC90 [1]: 0.015 µg/mL | MEC range [1]: ≤0.0078 to 0.03 µg/mL | median stasis 24 h free drug AUC/MIC target (C. parapsilosis; C. parapsilosis): 2.61 | Stasis 24 h Ave free drug AUC/MIC (C. parapsilosis; C. parapsilosis 20423.072): 1.39 | Stasis free drug AUC0-168h/MIC (C. parapsilosis; C. parapsilosis 20423.072): 9.74 | Stasis total drug AUC0-168h/MIC (C. parapsilosis; C. parapsilosis 20423.072): 1217.49 | Static dose (C. parapsilosis; C. parapsilosis 20423.072): 9.62 mg/kg | Stasis 24 h Ave free drug AUC/MIC (C. parapsilosis; C. parapsilosis 20477.048): 3.82 | Stasis free drug AUC0-168h/MIC (C. parapsilosis; C. parapsilosis 20477.048): 26.72 | Stasis total drug AUC0-168h/MIC (C. parapsilosis; C. parapsilosis 20477.048): 3339.42 | Static dose (C. parapsilosis; C. parapsilosis 20477.048): 52.96 mg/kg | median stasis free drug AUC0-168/MIC target (C. parapsilosis; C. parapsilosis (only two strains achieved the endpoint)): 18.2 | half-life [2]: ~25 h | bioavailability ([2]; read-out: absolute bioavailability): ~50% | irritation or local (injection site) adverse toxicity ([3]; single 30 mg/kg SC (100 mg/mL)): no sign of irritation or local (injection site) adverse toxicity | bodyweight or food consumption ([3]; single 30 mg/kg SC, 10 days after administration): no effect on bodyweight or food consumption | survival vs vehicle [4]: significantly longer survival than vehicle | MEC90 [5]: 0.015 µg/mL | dose safe and well tolerated [6]: at least 30 mg/kg | 1 log kill 24 h Ave Free drug AUC/MIC (C. albicans; C. albicans 98-17): 3.92 | 1 log kill dose (C. albicans; C. albicans 98-17): 2.73 mg/kg | 1 log kill free drug AUC0-168h/MIC (C. albicans; C. albicans 98-17): 27.47 | 1 log kill total drug AUC0-168h/MIC (C. albicans; C. albicans 98-17): 3433.40 | Stasis 24 h Ave free drug AUC/MIC (C. albicans; C. albicans 98-17): 2.19 | Stasis free drug AUC0-168h/MIC (C. albicans; C. albicans 98-17): 15.35 | Stasis total drug AUC0-168h/MIC (C. albicans; C. albicans 98-17): 1918.43 | Static dose (C. albicans; C. albicans 98-17): 1.34 mg/kg | 1 log kill 24 h Ave Free drug AUC/MIC (C. albicans; C. albicans 98-210): 6.72 | 1 log kill dose (C. albicans; C. albicans 98-210): 2.28 mg/kg | 1 log kill free drug AUC0-168h/MIC (C. albicans; C. albicans 98-210): 47.01 | 1 log kill total drug AUC0-168h/MIC (C. albicans; C. albicans 98-210): 5875.95 | Stasis 24 h Ave free drug AUC/MIC (C. albicans; C. albicans 98-210): 3.70 | Stasis free drug AUC0-168h/MIC (C. albicans; C. albicans 98-210): 25.93 | Stasis total drug AUC0-168h/MIC (C. albicans; C. albicans 98-210): 3241.65 | Static dose (C. albicans; C. albicans 98-210): 1.06 mg/kg | 1 log kill 24 h Ave Free drug AUC/MIC (C. albicans; C. albicans 580): 3.05 | 1 log kill dose (C. albicans; C. albicans 580): 2.03 mg/kg | 1 log kill free drug AUC0-168h/MIC (C. albicans; C. albicans 580): 21.34 | 1 log kill total drug AUC0-168h/MIC (C. albicans; C. albicans 580): 2667.21 | Stasis 24 h Ave free drug AUC/MIC (C. albicans; C. albicans 580): 2.02 | Stasis free drug AUC0-168h/MIC (C. albicans; C. albicans 580): 14.15 | Stasis total drug AUC0-168h/MIC (C. albicans; C. albicans 580): 1769.30 | Static dose (C. albicans; C. albicans 580): 1.20 mg/kg | 1 log kill 24 h Ave Free drug AUC/MIC (C. albicans; C. albicans K-1): 6.86 | 1 log kill dose (C. albicans; C. albicans K-1): 5.26 mg/kg | 1 log kill free drug AUC0-168h/MIC (C. albicans; C. albicans K-1): 48.05 | 1 log kill total drug AUC0-168h/MIC (C. albicans; C. albicans K-1): 6005.95 | Stasis 24 h Ave free drug AUC/MIC (C. albicans; C. albicans K-1): 3.65 | Stasis free drug AUC0-168h/MIC (C. albicans; C. albicans K-1): 25.58 | Stasis total drug AUC0-168h/MIC (C. albicans; C. albicans K-1): 3197.16 | Static dose (C. albicans; C. albicans K-1): 2.52 mg/kg | 1 log kill 24 h Ave Free drug AUC/MIC (C. albicans; C. albicans, Mean of 4 strains): 5.14 | 1 log kill dose (C. albicans; C. albicans, Mean of 4 strains): 3.08 mg/kg | 1 log kill free drug AUC0-168h/MIC (C. albicans; C. albicans, Mean of 4 strains): 35.97 | 1 log kill total drug AUC0-168h/MIC (C. albicans; C. albicans, Mean of 4 strains): 4495.63 | Stasis 24 h Ave free drug AUC/MIC (C. albicans; C. albicans, Mean of 4 strains): 2.89 | Stasis free drug AUC0-168h/MIC (C. albicans; C. albicans, Mean of 4 strains): 20.25 | Stasis total drug AUC0-168h/MIC (C. albicans; C. albicans, Mean of 4 strains): 2531.64 | Static dose (C. albicans; C. albicans, Mean of 4 strains): 1.53 mg/kg | 1 log kill 24 h Ave Free drug AUC/MIC (C. albicans; [9]): 5.32 | 1 log kill dose (C. albicans; [9]): 2.51 mg/kg | 1 log kill free drug AUC0-168h/MIC (C. albicans; [9]): 37.24 | 1 log kill total drug AUC0-168h/MIC (C. albicans; [9]): 4654.68 | Stasis 24 h Ave free drug AUC/MIC (C. albicans; [9]): 2.92 | Stasis free drug AUC0-168h/MIC (C. albicans; [9]): 20.5 and 20.46 | Stasis total drug AUC0-168h/MIC (C. albicans; [9]): 2557.79 | Static dose (C. albicans; [9]): 1.27 mg/kg | kill at high doses (C. albicans; C. albicans, a number of strains): > 2 log10 | Kp ([7]; liver, kidney, lung, spleen, read-out: tissue/plasma exposure ratios): ~4 | half-life ([7]; plasma, read-out: t1/2 in plasma (converted)): 39 h | half-life ([7]; tissues (all tissues studied), read-out: t1/2 in all tissues studied): 40 to 77 h | survival ([8]; CD101 SC 5 mg/kg, 14 days): increased survival when prophylaxis was given closer to challenge | symptoms of infection (body weight, hunched posture, ruffled fur, immobility, hypothermia) ([8]; CD101 SC 5, 10 and 20 mg/kg on Day −5, −3 and −1): improved | survival ([8]; CD101 SC 10 and 20 mg/kg, any prophylactic treatment day, 14 days): All animals in the 10 and 20 mg/kg groups survived | 14-day survival ([8]; CD101 at 5 mg/kg SC administered one hour after infection): significant increase in the 14-day survival | survival ([8]; prophylaxis, Doses 0 mg/kg): 100% | survival ([8]; prophylaxis, single 5 mg/kg dose given up to 5 days prior to infection): improved survival depending on day given | invasive candidiasis infection at follow-up visit (invasive candidiasis): confirmed to be resolved
